molecular target: T1, human α-thrombin (Homo sapiens, UniProt P00734); assay: In vitro assay for determining proteinase inhibition (thrombin); assay type: biochemical; conditions: 25° C., 0.05 M TRIS buffer pH 7.4, 0.15 M NaCl, 0.1% PEG
T1 construct: human α-thrombin
Method: In Vitro Assay for Determining Proteinase Inhibition
Assays of human α-thrombin and human trypsin were performed at 25° C. in 0.05 M TRIS buffer pH 7.4, 0.15 M NaCl, 0.1% PEG. Trypsin assays also contained 1 mM CaCl2.
In assays wherein rates of hydrolysis of a p-nitroanilide (pna) substrate were determined, a Thermomax 96-well plate reader was used to measure (at 405 nm) the time dependent appearance of p-nitroaniline. sar-PR-pna (sarcosine-Pro-Arg-p-nitroanilide) was used to assay human α-thrombin (Km=125 μM) and human trypsin (Km=59 μM). p-Nitroanilide substrate concentration was determined from measurements of absorbance at 342 nm using an extinction coefficient of 8270 cm-1M-1.
In certain studies with potent inhibitors (Ki<10 nM) where the degree of inhibition of thrombin was high, a more sensitive activity assay was employed. In this assay the rate of thrombin catalyzed hydrolysis of the fluorogenic substrate Z-GPR-afc (Cbz-Gly-Pro-Arg-7-amino-4-trifluoromethylcoumarin) (Km=27 μM) was determined from the increase in fluorescence at 500 nm (excitation at 400 nm) associated with production of 7-amino-4-trifluoromethyl coumarin. Concentrations of stock solutions of Z-GPR-afc were determined from measurements of absorbance at 380 nm of the 7-amino-4-trifluoromethyl coumarin produced upon complete hydrolysis of an aliquot of the stock solution by thrombin.
Activity assays were performed by diluting a stock solution of substrate at least tenfold to a final concentration≤0.5 Km into a solution containing enzyme or enzyme equilibrated with inhibitor. Times required to achieve equilibration between enzyme and inhibitor were determined in control experiments. Initial velocities of product formation in the absence (Vo) or presence of inhibitor (Vi) were measured. Assuming competitive inhibition, and that unity is negligible compared Km/[S], [I]/e, and [I]/e (where [S], [I], and e respectively represent the total concentrations, of substrate, inhibitor and enzyme), the equilibrium constant (Ki) for dissociation of the inhibitor from the enzyme can be obtained from the dependence of Vo/Vi on [I] shown in equation 1.

`Cc1nc(N)ccc1CNC(=O)Cn1c(C)cc2c([nH]c(=O)n2CCc2ccccc2)c1=O` and `Cc1nc(N)ccc1CNC(=O)Cn1c(C)cc2c([nH]c(=O)n2CCc2ccccn2)c1=O` cannot be ordered by Ki: less than 10 nM for the first, less than 10 nM for the second.

`Cc1nc(N)ccc1CNC(=O)Cn1c(C)cc2c([nH]c(=O)n2CC2CCCCC2)c1=O` and `Cc1nc(N)ccc1CNC(=O)Cn1c(C)cc2c([nH]c(=O)n2CC2CC2)c1=O` cannot be ordered by Ki: greater than 10 nM for the first, greater than 10 nM for the second.

First: Cc1nc(N)ccc1CNC(=O)Cn1c(C)cc2c([nH]c(=O)n2CCC(C)(C)C)c1=O
Second: Cc1nc(N)ccc1CNC(=O)Cn1c(C)cc2c([nH]c(=O)n2CCC(C)C)c1=O
The Ki of the first is higher: greater than 10 nM for the first, less than 10 nM for the second. The second binds more tightly here.

`Cc1nc(N)ccc1CNC(=O)Cn1c(C)cc2c([nH]c(=O)n2[C@H](C)c2ccccc2)c1=O` and `Cc1cc2c([nH]c(=O)n2CCC(C)C)c(=O)n1CC(=O)NCc1ccccc1OCC(=O)NC1CC1` cannot be ordered by Ki: greater than 10 nM for the first, greater than 10 nM for the second.
